assay: Inhibition of human 20S immuno proteosome beta5i subunit using Suc-LLVY-AMC as substrate measured after 10 mins by fluorescence based analysis

IC50 [µM] | SMILES
5.6 | COc1ccccc1NC(=O)Nc1ccc2n(c1=O)C[C@@H]1C[C@H]2CN(C(=O)c2ccc3ccccc3c2)C1
31.6 | O=C(Nc1ccccc1)Nc1ccc2n(c1=O)C[C@@H]1C[C@H]2CN(C(=O)c2ccc3ccccc3c2)C1
8.44 | O=C(Nc1ccc(Cl)cc1)Nc1ccc2n(c1=O)C[C@@H]1C[C@H]2CN(C(=O)c2ccc3ccccc3c2)C1
22.1 | N#Cc1cccc(NC(=O)Nc2ccc3n(c2=O)C[C@@H]2C[C@H]3CN(C(=O)c3ccc4ccccc4c3)C2)c1
